Data published in patent US10564162B2, “Predictive biomarkers” (BIONOMICS LIMITED, priority 2014, dated 2020).

Experiments:
[1] = test system: tumour endothelial cells (activated) and normal endothelial cells (quiescent); test: Potency against activated versus quiescent endothelial cells; assay type: cell-based
[2] = test system: tubulin; test: Tubulin polymerisation inhibition; assay type: biochemical
[3] = test system: Matrix Metalloproteinase-9 (MMP-9); test: Disruptor-1 trial: plasma MMP-9 level post versus pre BNC105P infusion (Human CustomMAP, Luminex); assay type: in vivo
Description: (§1) The objective of the study was to determine the response rate of patients administered BNC105P (vascular disrupting agent) in combination with everolimus (mTOR inhibitor) in patients who had progressed from prior tyrosine kinase inhibitor therapy. In addition, the present inventors determined the improvement in 6-months progression free survival (PFS) with the addition of BNC105P to everolimus (Afinitor). A control group of patients received everolimus alone.
(§2) Patients in the BNC105P in combination with everolimus study group (the “combination arm”) were administered 10 mg oral everolimus daily. On days 1 and 8 of the 21 day cycle period, the patients were administered 16 mg/m^2 BNC105P, which had been determined to be the maximum tolerated dose, by intravenous infusion over a 10 minute period (FIG. 1). Treatment was continued until disease progressed, intolerable toxicity became apparent, or until consent was withdrawn. A control group of patients were administered with everolimus alone.
(§3) Human EDTA plasma samples were taken from patients to quantitatively measure the concentration of 56 analytes from the Human CustomMAP at Myriad RBM (MRBM). […]
(§4) The biomarker levels at each time and the change in biomarker levels were examined. The mean change from pre- to post-infusion was calculated as the mean of C1D1 pre-infusion minus C1D1 post-infusion. […]

[4] = Maximum tolerated dose of BNC105P in patients; assay type: in vivo, Human; conditions: intravenous infusion over 10 minutes, days 1 and 8 of 21 day cycle, with 10 mg oral everolimus daily
Procedure: as §2

[5] = test system: Serum Amyloid P-Component (SAP); test: Disruptor-1 trial: plasma SAP level post versus pre BNC105P infusion (Human CustomMAP, Luminex); assay type: in vivo
Description: as §1, §2, §3, §4

[6] = test system: Sex Hormone-Binding Globulin (SHBG); test: Disruptor-1 trial: plasma SHBG level post versus pre BNC105P infusion (Human CustomMAP, Luminex); assay type: in vivo
Description: as §1, §2, §3, §4

[7] = test system: Stem Cell Factor (SCF); test: Disruptor-1 trial: plasma SCF level post versus pre BNC105P infusion (Human CustomMAP, Luminex); assay type: in vivo
Description: as §1, §2, §3, §4

[8] = test system: Myoglobin (MB); test: Disruptor-1 trial: plasma Myoglobin level post versus pre BNC105P infusion (Human CustomMAP, Luminex); assay type: in vivo
Description: as §1, §2, §3, §4

[9] = plasma, renal cell carcinoma patients, 16 mg/m^2 BNC105P i.v. infusion plus 10 mg oral everolimus daily, post versus pre infusion
[10] = post/baseline plasma ratio after BNC105P, patients split at the median

Row | SMILES | selectivity between activated (tumour) and quiescent (normal) endothelial cells (in words) [1] | tubulin polymerisation inhibition (in words) [2] | Median Post/Baseline Ratio, MMP-9 [3, 9] | Biomarker change Ratio Range associated with better PFS, MMP-9 [3, 10] | maximum tolerated dose [4] [mg/m^2] | Median Post/Baseline Ratio, SAP [5, 9] | Biomarker change Ratio Range associated with better PFS, SAP [5, 10] | Median Post/Baseline Ratio, SHBG [6, 9] | Biomarker change Ratio Range associated with better PFS, SHBG [6, 10] | Median Post/Baseline Ratio, SCF [7, 9] | Biomarker change Ratio Range associated with better PFS, SCF [7, 10] | Median Post/Baseline Ratio, Myoglobin [8, 9] | Biomarker change Ratio Range associated with better PFS, Myoglobin [8, 10]
1 | COc1cc(C(=O)c2c(C)oc3c(O)c(OC)ccc23)cc(OC)c1OC [III, 2-methyl-7-hydroxy-3-(3,4,5-trimethoxybenzoyl)-6-methoxybenzofuran] | show selectivity towards tumor endothelial cells (activated) over normal endothelial cells (quiescent) | potent tubulin polymerisation inhibitors | – | – | – | – | – | – | – | – | – | – | –
2 | COc1cc(C(=O)c2c(C)oc3c(OP(=O)([O-])[O-])c(OC)ccc23)cc(OC)c1OC.[Na+].[Na+] [BNC105P, disodium [6-methoxy-2-methyl-3-(3,4,5-trimethoxybenzoyl)-1-benzofuran-7-yl]phosphate] | – | – | 1.060 | >1.060 | 16 | 0.95 | ≤0.95 | 0.92 | ≤0.92 | 1.0 | >1 | 0.935 | ≤0.935
3 | COc1ccc(/C=C\c2cc(OC)c(OC)c(OC)c2)cc1O [Combretastatin A4, reference compound] | equally potent against quiescent and activated endothelial cells | – | – | – | – | – | – | – | – | – | – | – | –
